Test results taken from PubChem BioAssay AID192 (DTP/NCI, 2004).
“And” between values parts separate entries of the source, which are not always exact repeats. Equal values may be shown once. Inconclusive results and toxic doses are left out. Numbered stars: 1 amine (or outer) side, 2 acyl side, 3 side chain; on linkers, the order of the positions; unused ones are H or OH. Bridge positions count the residues as written; N and C are the ends. Square brackets hold non-standard residues; d marks the D form. Peptide text beside a SMILES is read from it. I, II: the chains in the order shown. Actinocin(9to1) = Cc1c2oc3c(C)ccc(C(=O)[*:1])c3nc-2c(C(=O)[*:2])c(N)c1=O; aThr = C[C@H](O)[C@H](N)C(=O)O; NMeV = CN[C@H](C(=O)O)C(C)C; Sar = CNCC(=O)O

Tested on: BDF1 mice, B16 melanoma ip, median survival T/C
Assay: NCI In Vivo Anticancer Drug Screen. Data for tumor model B16 Melanoma (intraperitoneal) in B6D2F1 (BDF1) mice
Settings: endpoint: median survival time, higher = longer survival
Method in brief: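 Vehicle-treated animals serve as the reference (C); treated animals (T) are scored for survival or tumor size after tumor transplantation.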

[1] = dose: 100.0 mg/kg/injection, schedule: Q01DX009 (ip), vehicle: Klucel (hydroxypropylcellulose) (HPC)
[2] = dose: 400.0 mg/kg/injection, schedule: Q01DX009 (ip), vehicle: Klucel (hydroxypropylcellulose) (HPC)

In the case of `CCC[CH2][Sn-]([CH2]CCC)([CH2]CCC)[O]c1cc(Cl)c(Cl)cc1Cl`, the T/C (dose: 0.25 mg/kg/injection, schedule: Q01DX009 (ip), vehicle: Klucel (hydroxypropylcellulose) (HPC)) was 95 % of control, the T/C (dose: 0.5 mg/kg/injection, schedule: Q01DX009 (ip), vehicle: Klucel (hydroxypropylcellulose) (HPC)) was 94 % of control and the T/C (dose: 1.0 mg/kg/injection, schedule: Q01DX009 (ip), vehicle: Klucel (hydroxypropylcellulose) (HPC)) was 96 % of control.

In the case of `CCCCNC(=O)Nc1cccc(C)c1C`, the T/C [1] was 88 % of control and the T/C [2] was 94 % of control.

`CC(=O)OC1C(O)C(C)OC(OC2C(OC(=O)C3CCC4C(C3)OC3(CC(OC(=O)/C=C/c5ccccc5)C(C)CO3)C43CO3)OC(C)C(O)C2OC(C)=O)C1O` (stereo unspecified) was tested, and the T/C (dose: 0.5 mg/kg/injection, schedule: Q01DX009 (ip), vehicle: saline + alcohol) was 110 % of control, the T/C (dose: 1.0 mg/kg/injection, schedule: Q01DX009 (ip), vehicle: saline + alcohol) was 120 % of control and the T/C (dose: 8.0 mg/kg/injection, schedule: Q01DX009 (ip), vehicle: saline + alcohol) was 152 % of control and 158 % of control. The T/C (dose: 16.0 mg/kg/injection, schedule: Q01DX009 (ip), vehicle: saline + alcohol) was 151 % of control.

For `CC(C(=O)O)C(=O)O.[NH-]CC[NH-].[Pt+2]`, the T/C (dose: 3.12 mg/kg/injection, schedule: Q01DX009 (ip), vehicle: water) was 150 % of control, the T/C (dose: 6.25 mg/kg/injection, schedule: Q01DX009 (ip), vehicle: water) was 162 % of control and the T/C (dose: 12.5 mg/kg/injection, schedule: Q01DX009 (ip), vehicle: water) was 179 % of control. For the same compound, the T/C (dose: 25.0 mg/kg/injection, schedule: Q01DX009 (ip), vehicle: water) was 211 % of control.

For `CCOC(=O)NNC(N)=S`, the T/C [1] was 100 % of control, the T/C (dose: 200.0 mg/kg/injection, schedule: Q01DX009 (ip), vehicle: Klucel (hydroxypropylcellulose) (HPC)) was 93 % of control and the T/C [2] was 93 % of control.

In the case of `COc1ccc(NC(=O)Nc2ccc(OC)cc2)cc1`, the T/C (dose: 200.0 mg/kg/injection, schedule: Q01DX009 (ip), vehicle: saline) was 120 % of control and the T/C (dose: 400.0 mg/kg/injection, schedule: Q01DX009 (ip), vehicle: saline) was 116 % of control.

With `Cc1c2oc3c(C)ccc(C(=O)N[C@@H]4C(=O)N[C@H](C(C)C)C(=O)N5CCC[C@H]5C(=O)N(C)CC(=O)N(C)[C@@H](C(C)C)C(=O)O[C@H]4C)c3nc-2c(C(=O)N[C@@H]2C(=O)N[C@H](C(C)C)C(=O)N3CCC[C@H]3C(=O)N(C)CC(=O)N(C)[C@@H](C(C)C)C(=O)O[C@H]2C)c(N)c1=O` (I: [aThr][dV]P[Sar][NMeV] / II: [aThr][dV]P[Sar][NMeV]; ester I:1-I:C, II:1-II:C; linker I:N-II:N via Actinocin(9to1)) the T/C (dose: 0.03 mg/kg/injection, schedule: Q01DX009 (ip), vehicle: water) was 157 % of control, the T/C (dose: 0.05 mg/kg/injection, schedule: Q01DX009 (ip), vehicle: water) was 186 % of control and the T/C (dose: 0.05 mg/kg/injection, schedule: Q04DX003 (ip), vehicle: saline) was 123 % of control and 124 % of control. For the same compound, the T/C (dose: 0.08 mg/kg/injection, schedule: Q01DX009 (ip), vehicle: saline) was 169 % of control, the T/C (dose: 0.13 mg/kg/injection, schedule: Q01DX009 (ip), vehicle: saline) was 44 % of control and the T/C (dose: 0.2 mg/kg/injection, schedule: Q04DX003 (ip), vehicle: saline) was 164 % of control. The T/C (dose: 0.22 mg/kg/injection, schedule: Q01DX009 (ip), vehicle: saline) was 42 % of control, the T/C (dose: 0.4 mg/kg/injection, schedule: Q04DX003 (ip), vehicle: saline) was 65 % of control and 69 % of control and the T/C (dose: 0.5 micrograms/kg/injection, schedule: Q01DX009 (ip), vehicle: saline) was 119 % of control. For the same compound, the T/C (dose: 2.0 micrograms/kg/injection, schedule: Q01DX009 (ip), vehicle: saline) was 116 % of control, the T/C (dose: 4.0 micrograms/kg/injection, schedule: Q01DX009 (ip), vehicle: saline) was 150 % of control and the T/C (dose: 6.25 micrograms/kg/injection, schedule: Q01DX009 (ip), vehicle: saline) was 101 % of control. The T/C (dose: 6.3 micrograms/kg/injection, schedule: Q01DX009 (ip), vehicle: saline) was 96 % of control, the T/C (dose: 6.5 micrograms/kg/injection, schedule: Q01DX009 (ip), vehicle: saline) was 120 % of control and the T/C (dose: 10.8 micrograms/kg/injection, schedule: Q01DX009 (ip), vehicle: saline) was 112 % of control. The T/C (dose: 12.5 micrograms/kg/injection, schedule: Q01DX009 (ip), vehicle: water) was 120 % of control, the T/C (dose: 16.0 micrograms/kg/injection, schedule: Q01DX009 (ip), vehicle: saline) was 157 % of control and the T/C (dose: 16.0 micrograms/kg/injection, schedule: Q01DX017 (ip), vehicle: saline) was 185 % of control. For the same compound, the T/C (dose: 21.6 micrograms/kg/injection, schedule: Q01DX009 (ip), vehicle: saline + alcohol) was 123 % of control, the T/C (dose: 25.0 micrograms/kg/injection, schedule: Q01DX009 (ip), vehicle: saline + alcohol) was 120 % of control and the T/C (dose: 32.0 micrograms/kg/injection, schedule: Q01DX005 (ip), vehicle: saline) was 120 % of control. The T/C (dose: 32.0 micrograms/kg/injection, schedule: Q01DX009 (ip), vehicle: saline) was 155 % of control, the T/C (dose: 32.0 micrograms/kg/injection, schedule: Q01DX017 (ip), vehicle: saline) was 200 % of control and the T/C (dose: 36.0 micrograms/kg/injection, schedule: Q01DX009 (ip), vehicle: saline + alcohol) was 152 % of control. For the same compound, the T/C (dose: 37.5 micrograms/kg/injection, schedule: Q01DX009 (ip), vehicle: saline + alcohol) was 153 % of control, the T/C (dose: 37.5 micrograms/kg/injection, schedule: Q01DX009 (ip), vehicle: saline) was 159 % of control and the T/C (dose: 37.5 micrograms/kg/injection, schedule: Q04DX003 (ip), vehicle: saline) was 118 % of control. For the same compound, the T/C (dose: 38.9 micrograms/kg/injection, schedule: Q04DX003 (ip), vehicle: saline + alcohol) was 123 % of control, the T/C (dose: 50.0 micrograms/kg/injection, schedule: Q01DX009 (ip), vehicle: saline + alcohol) was 158 % of control and the T/C (dose: 50.0 micrograms/kg/injection, schedule: Q01DX009 (ip), vehicle: water) was 152 % of control and 166 % of control. The T/C (dose: 60.0 micrograms/kg/injection, schedule: Q01DX009 (ip), vehicle: saline + alcohol) was 152 % of control and 161 % of control, the T/C (dose: 64.0 micrograms/kg/injection, schedule: Q01DX005 (ip), vehicle: saline) was 152 % of control and the T/C (dose: 64.8 micrograms/kg/injection, schedule: Q04DX003 (ip), vehicle: saline + alcohol) was 154 % of control. The T/C (dose: 75.0 micrograms/kg/injection, schedule: Q01DX009 (ip), vehicle: saline) was 186 % of control, the T/C (dose: 75.0 micrograms/kg/injection, schedule: Q04DX003 (ip), vehicle: water) was 123 % of control and the T/C (dose: 83.0 micrograms/kg/injection, schedule: Q01DX009 (ip), vehicle: saline) was 175 % of control. The T/C (dose: 100.0 micrograms/kg/injection, schedule: Q01DX009 (ip), vehicle: saline + alcohol) was 169 % of control, the T/C (dose: 100.0 micrograms/kg/injection, schedule: Q01DX009 (ip), vehicle: water) was 175 % of control and the T/C (dose: 108.0 micrograms/kg/injection, schedule: Q04DX003 (ip), vehicle: saline + alcohol) was 150 % of control and 159 % of control and 160 % of control. The T/C (dose: 128.0 micrograms/kg/injection, schedule: Q01DX005 (ip), vehicle: saline) was 165 % of control, the T/C (dose: 128.0 micrograms/kg/injection, schedule: Q04DX003 (ip), vehicle: saline) was 150 % of control and the T/C (dose: 180.0 micrograms/kg/injection, schedule: Q04DX003 (ip), vehicle: saline + alcohol) was 164 % of control and 172 % of control and 176 % of control. The T/C (dose: 225.0 micrograms/kg/injection, schedule: Q04DX003 (ip), vehicle: saline + alcohol) was 91 % of control, the T/C (dose: 225.0 micrograms/kg/injection, schedule: Q04DX003 (ip), vehicle: saline) was 159 % of control and the T/C (dose: 256.0 micrograms/kg/injection, schedule: Q04DX003 (ip), vehicle: saline) was 165 % of control. The T/C (dose: 300.0 micrograms/kg/injection, schedule: Q04DX003 (ip), vehicle: saline) was 168 % of control and 169 % of control, the T/C (dose: 300.0 micrograms/kg/injection, schedule: Q04DX003 (ip), vehicle: water) was 106 % of control and the T/C (dose: 500.0 micrograms/kg/injection, schedule: Q04DX003 (ip), vehicle: saline + alcohol) was 101 % of control. For the same compound, the T/C (dose: 512.0 micrograms/kg/injection, schedule: Q01DX001 (ip), vehicle: saline) was 92 % of control and the T/C (dose: 600.0 micrograms/kg/injection, schedule: Q04DX003 (ip), vehicle: saline) was 231 % of control.

`ClCc1c2ccccc2c(CCl)c2ccccc12` was tested, and the T/C (dose: 0.75 mg/kg/injection, schedule: Q01DX009 (ip), vehicle: Klucel (hydroxypropylcellulose) (HPC)) was 114 % of control and the T/C (dose: 1.5 mg/kg/injection, schedule: Q01DX009 (ip), vehicle: Klucel (hydroxypropylcellulose) (HPC)) was 119 % of control.

In the case of `COc1ccc(C(C)=O)cc1[N+](=O)[O-]`, the T/C (dose: 50.0 mg/kg/injection, schedule: Q01DX009 (ip), vehicle: saline with Tween-80) was 97 % of control, the T/C (dose: 100.0 mg/kg/injection, schedule: Q01DX009 (ip), vehicle: saline with Tween-80) was 102 % of control and the T/C (dose: 200.0 mg/kg/injection, schedule: Q01DX009 (ip), vehicle: saline with Tween-80) was 105 % of control.

For `CCN(C(=O)Nc1ccccc1)c1ccccc1`, the T/C (dose: 100.0 mg/kg/injection, schedule: Q04DX003 (ip), vehicle: saline with Tween-80) was 94 % of control, the T/C (dose: 200.0 mg/kg/injection, schedule: Q04DX003 (ip), vehicle: saline with Tween-80) was 100 % of control and the T/C (dose: 400.0 mg/kg/injection, schedule: Q04DX003 (ip), vehicle: saline with Tween-80) was 97 % of control.
